According to the supplement of paper PMC10307832:

Legend:
Test in all cases: relative viability (nuclei count vs DMSO), 5 days (fraction); higher = more cells survive
[1] = compound: C1=CC2=NC=CN=C2C=C1/C=C/3\C(=O)NC(=O)S3 + Nc1nc2[nH]cc(CCc3ccc(C(=O)N[C@@H](CCC(=O)O)C(=O)O)cc3)c2c(=O)[nH]1 [Pemetrexed] (partner 0.2 µM)
In short: (§1)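 Relative viability is defined as nuclei in treated wells over nuclei in vehicle wells. Duplicate plates were run and medians reported. Lung cancer cell lines in 1536-well plates were dosed by pin tool one day after seeding, with one drug or with a fixed anchor-drug dose plus five library-drug doses (not always all listed) in √10 steps, and nuclei were counted after 5 days.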

[2] = compound: CCN1CCN(c2ccc(Nc3cc(N(C)C(=O)Nc4c(Cl)c(OC)cc(OC)c4Cl)ncn3)cc2)CC1 [BGJ398] + N=C(N)NC(=N)NCCc1ccccc1 [Phenformin] (partner 250 µM)
In short: as §1

[3] = compound: C1=CC2=NC=CN=C2C=C1/C=C/3\C(=O)NC(=O)S3 + Cc1cc(Nc2cc(N3CCN(C)CC3)nc(Sc3ccc(NC(=O)C4CC4)cc3)n2)n[nH]1 [Tozasertib] (partner 0.1 µM)
In short: as §1

[4] = compound: C1=CC2=NC=CN=C2C=C1/C=C/3\C(=O)NC(=O)S3 + NC(=O)Nc1cc(-c2cccc(F)c2)sc1C(=O)N[C@H]1CCCNC1 [AZD7762] (partner 0.2 µM)
In short: as §1

Cell Line | relative viability ([1]; first compound 0.02 µM) | relative viability ([1]; first compound 0.06325 µM) | relative viability ([1]; first compound 0.2 µM) | relative viability ([1]; first compound 0.6325 µM) | relative viability ([1]; first compound 2 µM) | relative viability ([2]; first compound 0.01 µM) | relative viability ([2]; first compound 0.03162 µM) | relative viability ([2]; first compound 0.1 µM) | relative viability ([2]; first compound 0.3162 µM) | relative viability ([2]; first compound 1 µM) | relative viability ([3]; first compound 0.02 µM) | relative viability ([3]; first compound 0.06325 µM) | relative viability ([3]; first compound 0.2 µM) | relative viability ([3]; first compound 0.6325 µM) | relative viability ([3]; first compound 2 µM) | relative viability ([4]; first compound 0.02 µM) | relative viability ([4]; first compound 0.06325 µM) | relative viability ([4]; first compound 0.2 µM) | relative viability ([4]; first compound 2 µM) | relative viability ([4]; first compound 0.6325 µM)
NCI-H1563 | 0.753 | 0.684 | 0.916 | 0.781 | 0.749 | 0.638 | 0.67 | 0.595 | 0.514 | 0.512 | – | – | – | – | – | – | – | – | – | –
NCI-H1623 | – | – | – | – | – | 0.641 | 0.427 | 0.619 | 0.548 | 0.497 | 0.405 | 0.413 | 0.473 | 0.403 | 0.38 | – | – | – | – | –
NCI-H1648 | 0.648 | 0.576 | 0.649 | – | 0.777 | – | – | – | – | – | 0.408 | – | 0.629 | 0.404 | 0.416 | 0.659 | 0.562 | 0.806 | 0.706 | –
NCI-H1650 | 0.376 | 0.381 | 0.319 | 0.357 | 0.394 | 0.369 | – | 0.399 | 0.187 | 0.365 | 0.434 | 0.446 | 0.459 | 0.375 | 0.411 | – | – | – | – | –
NCI-H1703 | – | – | – | – | – | – | – | – | – | – | – | – | – | – | – | 0.126 | 0.109 | 0.135 | 0.128 | 0.124
NCI-H1792 | 0.755 | – | 0.756 | 0.831 | 0.47 | 0.288 | 0.233 | 0.259 | 0.315 | 0.262 | – | – | – | – | – | 0.675 | – | 0.642 | 0.348 | 0.667
NCI-H2009 | 1.05 | 1.1 | 1.01 | 1.01 | 1.18 | 0.454 | 0.511 | 0.437 | 0.374 | 0.45 | 0.747 | 0.77 | 0.721 | 0.744 | 0.761 | – | – | – | – | –
NCI-H2023 | 0.251 | 0.269 | 0.24 | 0.214 | 0.182 | 0.409 | 0.483 | 0.434 | 0.398 | 0.371 | 0.404 | 0.321 | 0.472 | 0.379 | 0.335 | – | – | – | – | –
NCI-H2228 | 0.358 | 0.34 | 0.332 | 0.293 | 0.321 | 0.328 | 0.32 | 0.243 | 0.299 | 0.28 | 0.302 | 0.228 | 0.234 | 0.21 | 0.221 | – | – | – | – | –
SK-LU-1 | 1.03 | 1.1 | 1.02 | 0.967 | 0.798 | 0.5 | 0.556 | 0.58 | 0.367 | 0.491 | 0.367 | 0.297 | 0.381 | 0.357 | 0.316 | – | – | – | – | –
SK-MES-1 | 0.99 | 1.01 | 0.953 | 0.884 | 0.837 | 0.584 | 0.691 | 0.677 | 0.589 | 0.593 | 0.894 | 0.884 | 0.998 | 0.965 | 0.934 | – | – | – | – | –
SW 1573 | 0.883 | 1.1 | 0.802 | 0.862 | 0.711 | 0.312 | 0.456 | 0.405 | 0.407 | 0.368 | 0.192 | 0.201 | 0.183 | 0.183 | 0.204 | – | – | – | – | –
